In PubChem BioAssay (NCI):
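Compound exposure: 48 hours, 5 concentrations, 96-well plates. The concentration for full growth arrest is given as TGI.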

Columns and labels:
Assay in all cases: inhibition of tumour cell growth, NCI panel, 48 h
[1] = tested on: 786-0 renal
[2] = tested on: A549 NSCLC
[3] = tested on: ACHN renal
[4] = tested on: BT-549 breast
[5] = tested on: CAKI-1 renal
[6] = tested on: COLO 205 colon
[7] = tested on: DU-145 prostate
[8] = tested on: EKVX NSCLC
[9] = tested on: HCC-2998 colon
[10] = tested on: HCT-116 colon
[11] = tested on: HCT-15 colon
[12] = tested on: HOP-62 NSCLC
[13] = tested on: HT29 colon
[14] = tested on: IGROV1 ovarian
[15] = tested on: K-562 leukemia
[16] = tested on: KM12 colon
[17] = tested on: LOX IMVI melanoma
[18] = tested on: M14 melanoma
[19] = tested on: MALME-3M melanoma
[20] = tested on: MCF7 breast
[21] = tested on: MDA-MB-231 breast
[22] = tested on: MDA-MB-435
[23] = tested on: MOLT-4 leukemia
[24] = tested on: NCI-H226 lung
[25] = tested on: NCI-H23 lung
[26] = tested on: NCI-H460 lung
[27] = tested on: NCI/ADR-RES ovarian
[28] = tested on: OVCAR-3 ovarian
[29] = tested on: OVCAR-4 ovarian
[30] = tested on: OVCAR-5 ovarian
[31] = tested on: OVCAR-8 ovarian
[32] = tested on: PC-3 prostate
[33] = tested on: RPMI-8226 leukemia
[34] = tested on: SF-268 CNS
[35] = tested on: SF-295 CNS
[36] = tested on: SF-539 CNS
[37] = tested on: SK-MEL-2 melanoma
[38] = tested on: SK-MEL-28 melanoma
[39] = tested on: SK-MEL-5 melanoma
[40] = tested on: SK-OV-3 ovarian
[41] = tested on: SNB-19 CNS
[42] = tested on: SR leukemia
[43] = tested on: SW-620 colon
[44] = tested on: T-47D breast
[45] = tested on: TK-10 renal
[46] = tested on: U251 CNS
[47] = tested on: UACC-257 melanoma
[48] = tested on: UACC-62 melanoma
[49] = tested on: UO-31 renal
[50] = tested on: A498 renal
[51] = tested on: CCRF-CEM leukemia
[52] = tested on: HL-60(TB) leukemia
[53] = tested on: HOP-92 NSCLC
[54] = tested on: NCI-H522 lung
[55] = tested on: SN12C renal
[56] = tested on: SNB-75 CNS

CC1CCN(C(C)C)P(=S)(Cc2ccccc2)O1 (centres undefined)
TGI [1]: > 100 µM | TGI [2]: > 100 µM | TGI [3]: > 100 µM | TGI [4]: > 100 µM | TGI [5]: > 100 µM | TGI [6]: > 100 µM | TGI [7]: > 100 µM | TGI [8]: > 100 µM | TGI [9]: > 100 µM | TGI [10]: > 100 µM | TGI [11]: > 100 µM | TGI [12]: > 100 µM | TGI [13]: > 100 µM | TGI [14]: > 100 µM | TGI [15]: > 100 µM | TGI [16]: > 100 µM | TGI [17]: > 100 µM | TGI [18]: > 100 µM | TGI [19]: > 100 µM | TGI [20]: > 100 µM | TGI [21]: > 100 µM | TGI [22]: > 100 µM | TGI [23]: > 100 µM | TGI [24]: > 100 µM | TGI [25]: > 100 µM | TGI [26]: > 100 µM | TGI [27]: > 100 µM | TGI [28]: > 100 µM | TGI [29]: > 100 µM | TGI [30]: > 100 µM | TGI [31]: > 100 µM | TGI [32]: > 100 µM | TGI [33]: > 100 µM | TGI [34]: > 100 µM | TGI [35]: > 100 µM | TGI [36]: > 100 µM | TGI [37]: > 100 µM | TGI [38]: 40 µM | TGI [39]: > 100 µM | TGI [40]: > 100 µM | TGI [41]: > 100 µM | TGI [42]: > 100 µM | TGI [43]: > 100 µM | TGI [44]: 56.8 µM | TGI [45]: > 100 µM | TGI [46]: > 100 µM | TGI [47]: > 100 µM | TGI [48]: > 100 µM | TGI [49]: > 100 µM

COc1ccc(C2SCC(=O)N2c2ccc(-n3c(-c4ccccc4)nc4ccccc4c3=O)cc2)cc1 (centres undefined)
TGI [1]: > 100 µM | TGI [50]: > 100 µM | TGI [2]: > 100 µM | TGI [3]: > 100 µM | TGI [4]: > 100 µM | TGI [5]: > 100 µM | TGI [51]: > 100 µM | TGI [6]: > 100 µM | TGI [7]: > 100 µM | TGI [8]: > 100 µM | TGI [9]: > 100 µM | TGI [10]: > 100 µM | TGI [11]: > 100 µM | TGI [52]: > 100 µM | TGI [12]: > 100 µM | TGI [53]: > 100 µM | TGI [13]: > 100 µM | TGI [14]: > 100 µM | TGI [15]: > 100 µM | TGI [16]: > 100 µM | TGI [17]: > 100 µM | TGI [18]: > 100 µM | TGI [20]: > 100 µM | TGI [21]: > 100 µM | TGI [22]: > 100 µM | TGI [23]: > 100 µM | TGI [24]: > 100 µM | TGI [25]: > 100 µM | TGI [26]: > 100 µM | TGI [54]: > 100 µM | TGI [27]: > 100 µM | TGI [28]: > 100 µM | TGI [29]: > 100 µM | TGI [30]: > 100 µM | TGI [31]: > 100 µM | TGI [32]: > 100 µM | TGI [33]: > 100 µM | TGI [34]: > 100 µM | TGI [35]: > 100 µM | TGI [36]: > 100 µM | TGI [37]: > 100 µM | TGI [38]: > 100 µM | TGI [39]: > 100 µM | TGI [40]: > 100 µM | TGI [55]: > 100 µM | TGI [41]: > 100 µM | TGI [56]: 79.3 µM | TGI [42]: > 100 µM | TGI [43]: > 100 µM | TGI [44]: > 100 µM | TGI [45]: > 100 µM | TGI [46]: > 100 µM | TGI [47]: > 100 µM | TGI [48]: > 100 µM | TGI [49]: > 100 µM
